Like-named read-outs stand apart in the source and are kept apart here.
What was measured:
[1] = biological target: T1, catalytic domain of human Bub1 (amino acids 704-1085) (Homo sapiens, UniProt O43683); assay: Bub1 kinase assay (TR-FRET); format: biochemical
T1 construct: catalytic domain of human Bub1 (amino acids 704-1085); His6 (N); made in house; host or cells: Hi5 insect cells
In short: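 TR-FRET read-out (Eu-anti-mouse IgG/anti-phosphoserine antibody to streptavidin-XL665 on biotinylated peptide) after EDTA stop and 1 h complex formation at 22° C. Kinase reaction ran 60 min at 22° C with 1:3.4 serial dilutions from 2 mM DMSO stocks. IC50 from 4-parameter logistic fit of normalized inhibition.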

Bub1 = Bub1 (Homo sapiens, UniProt O43683); assay: Formation-Assay: phosphorylation status of histone 2A by inhibition of kinase activity of Bub1; format: cell-based; details: Biological Assay 4.1: H2A Formation IC50, co-treatment with Nocodazole 1 μg/ml, 16 h
Chain of Bub1 (O43683 whole entry): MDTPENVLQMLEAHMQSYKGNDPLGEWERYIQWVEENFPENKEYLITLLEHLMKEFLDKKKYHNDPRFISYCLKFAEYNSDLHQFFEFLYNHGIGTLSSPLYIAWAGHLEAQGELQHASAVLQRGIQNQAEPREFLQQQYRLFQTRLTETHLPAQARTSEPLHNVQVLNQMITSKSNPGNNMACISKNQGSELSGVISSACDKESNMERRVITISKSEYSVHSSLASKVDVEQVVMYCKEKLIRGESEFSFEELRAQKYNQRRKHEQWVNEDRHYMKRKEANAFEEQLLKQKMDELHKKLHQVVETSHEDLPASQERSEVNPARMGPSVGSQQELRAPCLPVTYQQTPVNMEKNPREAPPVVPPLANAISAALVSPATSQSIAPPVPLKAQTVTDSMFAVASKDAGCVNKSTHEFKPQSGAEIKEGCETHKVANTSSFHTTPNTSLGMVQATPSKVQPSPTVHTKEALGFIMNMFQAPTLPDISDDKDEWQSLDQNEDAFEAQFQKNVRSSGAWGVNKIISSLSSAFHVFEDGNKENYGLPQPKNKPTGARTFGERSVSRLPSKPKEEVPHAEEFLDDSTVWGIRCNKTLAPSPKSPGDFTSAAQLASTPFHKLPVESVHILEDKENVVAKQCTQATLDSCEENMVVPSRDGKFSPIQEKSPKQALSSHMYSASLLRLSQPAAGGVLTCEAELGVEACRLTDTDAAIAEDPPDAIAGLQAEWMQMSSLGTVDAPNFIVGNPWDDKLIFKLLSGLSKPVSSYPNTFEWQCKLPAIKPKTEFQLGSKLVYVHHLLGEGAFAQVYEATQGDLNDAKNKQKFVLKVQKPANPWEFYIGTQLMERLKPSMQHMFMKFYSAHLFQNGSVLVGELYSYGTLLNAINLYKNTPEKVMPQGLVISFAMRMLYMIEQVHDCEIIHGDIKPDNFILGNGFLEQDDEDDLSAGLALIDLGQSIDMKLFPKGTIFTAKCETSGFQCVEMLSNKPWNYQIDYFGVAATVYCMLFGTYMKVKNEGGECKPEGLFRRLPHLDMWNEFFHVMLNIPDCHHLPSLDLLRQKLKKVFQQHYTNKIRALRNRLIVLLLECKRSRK
In short: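 Cells co-treated 16 h with Nocodazole (1 μg/ml) and compound (3 nM–10 μM), then fixed and immunostained for phospho-H2A, read by infrared imaging (800 nm) normalised to cell stain (700 nm). Nocodazole-only set as 100%, untreated cells as 0%.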

HeLa = assay: Proliferation assay (HeLa cell line); details: Homo sapiens, 96 h, read-out: Biological Assay 2: Proliferation assay (HeLa cell line) median IC50;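 also: crystal violet staining of cell number, scaled between a plate stained before dosing (0%) and cells left untreated (100%), compounds tested at 0.001-10 µM, IC50 via 4-parameter fit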
[2] = tested on: HeLa human cervical tumor cells; assay: Proliferation assay (HeLa+Paclitaxel); details: read-out: Biological Assay 3: HeLa + Paclitaxel IC50, 3 nM paclitaxel, crystal violet;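 also: compounds at 0.001-10 µM added 4 h after paclitaxel, 92 h exposure, absorbance normalized to zero-point plate (0%) and untreated cells (100%), IC50 from 4-parameter fit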
[3] = 10 μM ATP, read-out: Biological Assay 1: Bub1 kinase assay median IC50
[4] = Biological Assay 1: Bub1 kinase assay median IC50, 10 μM ATP

T1 sequence (O43683 704-1085): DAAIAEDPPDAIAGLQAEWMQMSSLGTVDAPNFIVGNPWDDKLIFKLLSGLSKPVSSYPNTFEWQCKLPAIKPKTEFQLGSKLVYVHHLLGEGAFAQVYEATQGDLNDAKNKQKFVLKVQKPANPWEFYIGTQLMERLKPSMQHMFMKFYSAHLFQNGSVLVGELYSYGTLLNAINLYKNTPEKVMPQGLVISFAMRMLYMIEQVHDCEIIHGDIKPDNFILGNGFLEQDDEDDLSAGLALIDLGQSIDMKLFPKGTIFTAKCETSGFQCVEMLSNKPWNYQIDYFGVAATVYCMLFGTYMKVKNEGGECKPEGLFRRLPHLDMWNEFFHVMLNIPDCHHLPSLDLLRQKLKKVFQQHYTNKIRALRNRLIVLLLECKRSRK

Row | IC50 [1, 3] [nM] | IC50 (Bub1) [nM] | IC50 (HeLa) [nM] | IC50 [2] [nM] | IC50 [1, 4] [nM] | Structure (SMILES)
1 | 17 | 14 | 10000 | 590 | – | CCOc1cc(F)c(Cn2nc(-c3nc(CN4CCOCC4)cc(Nc4ccnnc4)n3)c3ccccc32)c(F)c1 [Example 2-12-35, N-{2-[1-(4-ethoxy-2,6-difluorobenzyl)-1H-indazol-3-yl]-6-(morpholin-4-ylmethyl)pyrimidin-4-yl}pyridazin-4-amine]
2 | 5.2 | 2100 | 6100 | 68 | – | CCOc1cc(F)c(Cn2nc(-c3nc(CN4CCOCC4)cc(Nc4ccncn4)n3)c3ccccc32)c(F)c1 [Example 2-12-47, 2-[1-(4-ethoxy-2,6-difluorobenzyl)-1H-indazol-3-yl]-6-(morpholin-4-ylmethyl)-N-(pyrimidin-4-yl)pyrimidin-4-amine]
3 | – | 1100 | 1200 | 180 | 21 | CCOc1cc(F)c(Cn2nc(-c3nc(COC)cc(Nc4ccnc(C)c4)n3)c3ccccc32)c(F)c1 [Example 2-12-48, 2-[1-(4-ethoxy-2,6-difluorobenzyl)-1H-indazol-3-yl]-6-(methoxymethyl)-N-(2-methylpyridin-4-yl)pyrimidin-4-amine]
4 | – | 23 | 970 | 1300 | 5.4 | COCc1cc(Nc2ccncc2C)nc(-c2nn(Cc3c(F)cc(OCCO)cc3F)c3ccccc23)n1 [Example 2-12-50, 2-{3,5-difluoro-4-[(3-{4-(methoxymethyl)-6-[(3-methylpyridin-4-yl)amino]pyrimidin-2-yl}-1H-indazol-1-yl)methyl]phenoxy}eth-anol]
5 | – | 570 | 410 | 340 | 45 | COCc1cc(Nc2ccnc(C)c2)nc(-c2nn(Cc3c(F)cc(OCCO)cc3F)c3ccccc23)n1 [Example 2-12-51, 2-{3,5-difluoro-4-[(3-{4-(methoxymethyl)-6-[(2-methylpyridin-4-yl)amino]pyrimidin-2-yl}-1H-indazol-1-yl)methyl]phenoxy}eth-anol]
6 | 100 | 25 | 1100 | 990 | – | CCOc1cc(F)c(Cn2nc(-c3nc4c(c(Nc5ncncn5)n3)CCC4)c3ccccc32)c(F)c1 [Example 2-12-52, 2-[1-(4-ethoxy-2,6-difluorobenzyl)-1H-indazol-3-yl]-N-(1,3,5-triazin-2-yl)-6,7-dihydro-5H-cyclopenta[d]pyrimidin-4-amine]
7 | 660 | 140 | > 10000 | 510 | – | CCOc1cc(F)c(Cn2nc(-c3nc4c(c(Nc5cnnc(Cl)c5)n3)CCC4)c3ccccc32)c(F)c1 [Example 2-12-53, N-(6-chloropyridazin-4-yl)-2-[1-(4-ethoxy-2,6-difluorobenzyl)-1H-indazol-3-yl]-6,7-dihydro-5H-cyclopenta[d]pyrimidin-4-amine]
8 | – | 14 | 3300 | 180 | 31 | CCOc1cc(F)c(Cn2nc(-c3nc4c(c(Nc5ccnc(C)n5)n3)CCC4)c3ccccc32)c(F)c1 [Example 2-12-54, 2-[1-(4-ethoxy-2,6-difluorobenzyl)-1H-indazol-3-yl]-N-(2-methylpyrimidin-4-yl)-6,7-dihydro-5H-cyclopenta[d]pyrimidin-4-amine]
9 | 22 | 120 | > 10000 | 62 | – | CCOc1cc(F)c(Cn2nc(-c3nc4c(c(Nc5cc(C)ncc5C)n3)CC(C)(C)C4)c3ccccc32)c(F)c1 [Example 2-12-59, N-(2,5-dimethylpyridin-4-yl)-2-[1-(4-ethoxy-2,6-difluorobenzyl)-1H-indazol-3-yl]-6,6-dimethyl-6,7-dihydro-5H-cyclopenta[d]pyrimidin-4-amine]
10 | – | 3.9 | > 10000 | 86 | 38 | CCOc1cc(F)c(Cn2nc(-c3nc4c(c(Nc5ccnc(C)n5)n3)CC(C)(C)C4)c3ccccc32)c(F)c1 [Example 2-12-60, 2-[1-(4-ethoxy-2,6-difluorobenzyl)-1H-indazol-3-yl]-6,6-dimethyl-N-(2-methylpyrimidin-4-yl)-6,7-dihydro-5H-cyclopenta[d]pyrimidin-4-amine]
11 | – | 2400 | > 10000 | 130 | 74 | COCCOc1cc(F)c(Cn2nc(-c3nc4c(c(Nc5ccnc(C)n5)n3)CC(C)(C)C4)c3ccccc32)c(F)c1 [Example 2-12-61, 2-{1-[2,6-difluoro-4-(2-methoxyethoxy)benzyl]-1H-indazol-3-yl}-6,6-dimethyl-N-(2-methylpyrimidin-4-yl)-6,7-dihydro-5H-cyclopenta[d]pyrimidin-4-amine]
12 | – | 3.3 | > 10000 | 110 | 22 | CCOc1cc(F)c(Cn2nc(-c3nc4c(c(Nc5ccnc(NC(C)=O)c5)n3)CC(C)(C)C4)c3ccccc32)c(F)c1 [Example 2-12-65, N-[4-({2-[1-(4-ethoxy-2,6-difluorobenzyl)-1H-indazol-3-yl]-6,6-dimethyl-6,7-dihydro-5H-cyclopenta[d]pyrimidin-4-yl}amino)pyridin-2-yl]acetamide]
13 | 98 | 22 | > 10000 | 100 | – | CCOc1cc(F)c(Cn2nc(-c3nc4c(c(Nc5ccnc(C)n5)n3)CC(C)(C)CC4)c3ccccc32)c(F)c1 [Example 2-12-66, 2-[1-(4-ethoxy-2,6-difluorobenzyl)-1H-indazol-3-yl]-6,6-dimethyl-N-(2-methylpyrimidin-4-yl)-5,6,7,8-tetrahydroquinazolin-4-amine]
14 | 66 | 22 | 4400 | 150 | – | CCOc1cc(F)c(Cn2nc(-c3nc4c(c(Nc5ccncc5OC)n3)CC(C)(C)CC4)c3ccccc32)c(F)c1 [Example 2-12-67, 2-[1-(4-ethoxy-2,6-difluorobenzyl)-1H-indazol-3-yl]-N-(3-methoxypyridin-4-yl)-6,6-dimethyl-5,6,7,8-tetrahydroquinazolin-4-amine]
15 | 35 | 3.8 | 2700 | 78 | – | CCOc1cc(F)c(Cn2nc(-c3nc4c(c(Nc5cc(C)ncc5C)n3)CC(C)(C)CC4)c3ccccc32)c(F)c1 [Example 2-12-68, N-(2,5-dimethylpyridin-4-yl)-2-[1-(4-ethoxy-2,6-difluorobenzyl)-1H-indazol-3-yl]-6,6-dimethyl-5,6,7,8-tetrahydroquinazolin-4-amine]
16 | 19 | 13 | 1600 | 220 | – | CCOc1cc(F)c(Cn2nc(-c3nc(Nc4ccncc4OC)cc(C(F)(F)F)n3)c3ccccc32)c(F)c1 [Example 2-12-81, 2-[1-(4-ethoxy-2,6-difluorobenzyl)-1H-indazol-3-yl]-N-(3-methoxypyridin-4-yl)-6-(trifluoromethyl)pyr-imidin-4-amine]
17 | – | 31 | > 10000 | 350 | > 20000 | CCOc1cc(F)c(Cn2nc(-c3nc(Nc4ccnc(C)n4)cc(C(F)(F)F)n3)c3ccccc32)c(F)c1 [Example 2-12-83, 2-[1-(4-ethoxy-2,6-difluorobenzyl)-1H-indazol-3-yl]-N-(2-methylpyrimidin-4-yl)-6-(trifluoromethyl)pyr-imidin-4-amine]
18 | – | 8.2 | 3700 | 370 | 5.3 | CCOc1cc(F)c(Cn2nc(-c3ncc(CCCO)c(Nc4ccncc4)n3)c3ccccc32)c(F)c1 [Example 2-13-1, 3-{2-[1-(4-ethoxy-2,6-difluorobenzyl)-1H-indazol-3-yl]-4-(pyridin-4-ylamino)pyrimidin-5-yl}propan-1-ol]
19 | 9.6 | 2.8 | 10000 | 680 | – | CCOc1cc(F)c(Cn2nc(-c3nc4c(c(Nc5ccncc5F)n3)CCC4)c3ccccc32)c(F)c1 [Example 2-14-1, 2-[1-(4-ethoxy-2,6-difluorobenzyl)-1H-indazol-3-yl]-N-(3-fluoropyridin-4-yl)-6,7-dihydro-5H-cyclopenta[d]pyrimidin-4-amine]
20 | 8 | 1.6 | 1100 | 120 | – | CCOc1cc(F)c(Cn2nc(-c3nc4c(c(Nc5ccncc5C)n3)CCC4)c3ccccc32)c(F)c1 [Example 2-14-2, 2-[1-(4-ethoxy-2,6-difluorobenzyl)-1H-indazol-3-yl]-N-(3-methylpyridin-4-yl)-6,7-dihydro-5H-cyclopenta[d]pyrimidin-4-amine]
21 | 2.9 | 13 | 940 | 120 | – | CCOc1cc(F)c(Cn2nc(-c3nc4c(c(Nc5ccncc5OC)n3)CCC4)c3ccccc32)c(F)c1 [Example 2-14-4, 2-[1-(4-ethoxy-2,6-difluorobenzyl)-1H-indazol-3-yl]-N-(3-methoxypyridin-4-yl)-6,7-dihydro-5H-cyclopenta[d]pyrimidin-4-amine]
22 | 16 | 2.7 | 3600 | 540 | – | CCOc1cc(F)c(Cn2nc(-c3nc4c(c(Nc5ccnnc5)n3)CCC4)c3ccccc32)c(F)c1 [Example 2-14-5, 2-[1-(4-ethoxy-2,6-difluorobenzyl)-1H-indazol-3-yl]-N-(pyridazin-4-yl)-6,7-dihydro-5H-cyclopenta[d]pyrimidin-4-amine]
